From US9241487B2, “Pyrimidine derivatives and use thereof as pesticides” (BAYER INTELLECTUAL PROPERTY GMBH, priority 2010, dated 2016)

Columns and labels:
[1] = log P by HPLC on reversed-phase columns (C 18), EEC directive 79/831 Annex V.A8; assay type: physicochemical; conditions: reversed-phase HPLC columns (C 18); method [a]: LC-MS, acidic range pH 2.7, 0.1% aqueous formic acid/acetonitrile, gradient 10% to 95% acetonitrile
Procedure: The log P values were measured according to EEC directive 79/831 Annex V.A8 by HPLC (High Performance Liquid Chromatography) on reversed-phase columns (C 18), using the methods below: [a] The LC-MS determination in the acidic range is carried out at pH 2.7 with 0.1% aqueous formic acid and acetonitrile (contains 0.1% formic acid) as mobile phases; linear gradient from 10% acetonitrile to 95% acetonitrile.

Sphaerotheca fuliginea = assay: Sphaerotheca test (cucumber)/protective; assay type: in vivo; conditions: Podosphaera fuliginea, 168 h, cucumber plants, protective spray, evaluation 7 days after inoculation, read-out: Efficacy (%)
Procedure: Sphaerotheca Test (Cucumber)/Protective
(§1) Solvent: 49 parts by weight of N,N-dimethylformamide
(§2) Emulsifier: 1 part by weight of alkylaryl polyglycol ether
To produce a suitable preparation of active compound, 1 part by weight of active compound is mixed with the stated amounts of solvent and emulsifier, and the concentrate is diluted with water to the desired concentration. To test for protective activity, young cucumber plants are sprayed with the preparation of active compound at the stated application rate. 1 day after the treatment, the plants are inoculated with a spore suspension of Sphaerotheca fuliginea. The plants are then placed in a greenhouse at 70% relative air humidity and a temperature of 23° C. Evaluation follows 7 days after the inoculation. 0% means an efficacy which corresponds to that of the control, whereas an efficacy of 100% means that no infection is observed. In this test, the following compounds according to the invention show, at an active compound concentration of 500 ppm, an efficacy of 70% or more: […]

Alternaria solani = assay: Alternaria test (tomato)/protective; assay type: in vivo; conditions: 168 h, tomato plants, protective spray, evaluation 7 days after inoculation, read-out: Efficacy (%)
Procedure: Alternaria Test (Tomato)/Protective
as §1, §2
To produce a suitable preparation of active compound, 1 part by weight of active compound is mixed with the stated amounts of solvent and emulsifier, and the concentrate is diluted with water to the desired concentration. To test for protective activity, young tomato plants are sprayed with the preparation of active compound at the stated application rate. 1 day after the treatment, the plants are inoculated with a spore suspension of Alternaria solani and then remain at 100% rd. humidity and 22° C. for 24 h. The plants then remain at 96% rd. atmospheric humidity and a temperature of 20° C. Evaluation is carried out 7 days after the inoculation. 0% means an efficacy which corresponds to that of the control, whereas an efficacy of 100% means that no infection is observed.
(§3) In this test, the following compounds according to the invention show, at an active compound concentration of 500 ppm, an efficacy of 70% or more: […]

Septoria tritici = Septoria tritici test (wheat)/protective; assay type: in vivo; conditions: Zymoseptoria tritici, 504 h, protective spray, evaluation 21 days after inoculation, read-out: Efficacy (%)
Procedure: Septoria tritici Test (Wheat)/Protective
(§4) Solvent: 49 parts by weight of N,N-dimethylacetamide
as §2
(§5) To produce a suitable preparation of active compound, 1 part by weight of active compound is mixed with the stated amounts of solvent and emulsifier, and the concentrate is diluted with water to the desired concentration. To test for protective activity, young plants are sprayed with the preparation of active compound at the stated application rate. After the spray coating has dried on, the plants are sprayed with a spore suspension of Septoria tritici. The plants remain in an incubation cabin at 20° C. and 100% relative atmospheric humidity for 48 hours. Thereafter, the plants are placed under a translucent hood at 15° C. and 100% relative air humidity for a further 60 hours. The plants are placed in a greenhouse at a temperature of about 15° C. and a relative atmospheric humidity of about 80%. Evaluation follows 21 days after the inoculation. 0% means an efficacy which corresponds to that of the control, whereas an efficacy of 100% means that no infection is observed.
as §3

Leptosphaeria nodorum = Leptosphaeria nodorum test (wheat)/protective; assay type: in vivo; conditions: Parastagonospora nodorum, wheat plants, protective spray, evaluation 7-9 days after inoculation, read-out: Efficacy (%)
Procedure: Leptosphaeria nodorum Test (Wheat)/Protective
as §1, §2
To produce a suitable preparation of active compound, 1 part by weight of active compound is mixed with the stated amounts of solvent and emulsifier, and the concentrate is diluted with water to the desired concentration. To test for protective activity, young wheat plants are sprayed with the preparation of active compound at the stated application rate. 1 day after the treatment, the plants are inoculated with an aqueous spore suspension of Leptosphaeria nodorum and then remain at 100% relative atmospheric humidity and 22° C. for 48 h. The plants are then placed in a greenhouse at 90% relative atmospheric humidity and a temperature of 22° C. Evaluation is carried out 7-9 days after the inoculation. 0% means an efficacy which corresponds to that of the control, whereas an efficacy of 100% means that no infection is observed. In this test, the following compounds according to the invention show, at an active compound concentration of 500 ppm, an efficacy of 70% or more: […]

[2] = test system: Blumeria graminis fsp. hordei; assay: Blumeria graminis test (barley)/protective; assay type: in vivo; conditions: 168 h, protective spray, evaluation 7 days after inoculation, read-out: Efficacy (%)
Procedure: Blumeria graminis Test (Barley)/Protective
as §4, §2
To produce a suitable preparation of active compound, 1 part by weight of active compound is mixed with the stated amounts of solvent and emulsifier, and the concentrate is diluted with water to the desired concentration. To test for protective activity, young plants are sprayed with the preparation of active compound at the stated application rate. After the spray coating has dried on, the plants are dusted with spores of Blumeria graminis fsp. hordei. The plants are placed in a greenhouse at a temperature of about 18° C. and a relative air humidity of about 80% to promote the development of mildew pustules. Evaluation follows 7 days after the inoculation. 0% means an efficacy which corresponds to that of the control, whereas an efficacy of 100% means that no infection is observed.
as §3

Uromyces appendiculatus = assay: Uromyces test (bean)/protective; assay type: in vivo; conditions: 240 h, protective spray, evaluation 10 days after inoculation, read-out: Efficacy (%)
Procedure: Uromyces Test (Bean)/Protective
(§6) Solvents: 24.5 parts by weight of acetone
(§7) • 24.5 parts by weight of dimethylacetamide Emulsifier: 1 part by weight of alkylaryl polyglycol ether
To produce a suitable preparation of active compound, 1 part by weight of active compound is mixed with the stated amounts of solvent and emulsifier, and the concentrate is diluted with water to the desired concentration. To test for protective activity, young plants are sprayed with the preparation of active compound at the stated application rate. After the spray coating has dried on, the plants are inoculated with an aqueous spore suspension of the bean rust pathogen Uromyces appendiculatus and then remain in an incubation cabin at about 20° C. and 100% relative atmospheric humidity for 1 day. The plants are then placed in the greenhouse at about 21° C. and a relative atmospheric humidity of about 90%. Evaluation follows 10 days after the inoculation. 0% means an efficacy which corresponds to that of the control, whereas an efficacy of 100% means that no infection is observed.
(§8) In this test, the following compounds according to the invention show, at an active compound concentration of 100 ppm, an efficacy of 70% or more: […]

Puccinia triticina = Puccinia triticina test (wheat)/protective; assay type: in vivo; conditions: 192 h, protective spray, evaluation 8 days after inoculation, read-out: Efficacy (%)
Procedure: Puccinia triticina Test (Wheat)/Protective
as §4, §2
as §5, with “sprayed with spores with a spore” for “sprayed with a spore”, “suspension of Puccinia triticina. The plants” for “suspension of Septoria tritici. The plants”, “48 hours. The plants” for “48 hours. Thereafter, the plants are placed under a translucent hood at 15° C. and 100% relative air humidity for a further 60 hours. The plants”, “of about 20° C. and” for “of about 15° C. and”, “Evaluation follows 8 days after” for “Evaluation follows 21 days after”
as §3

Venturia inaequalis = assay: Venturia test (apple)/protective; assay type: in vivo; conditions: 240 h, protective spray, evaluation 10 days after inoculation, read-out: Efficacy (%)
Procedure: Venturia Test (Apple)/Protective
as §6, §7
To produce a suitable preparation of active compound, 1 part by weight of active compound is mixed with the stated amounts of solvent and emulsifier, and the concentrate is diluted with water to the desired concentration. To test for protective activity, young plants are sprayed with the preparation of active compound at the stated application rate. After the spray coating has dried on, the plants are inoculated with an aqueous conidia suspension of the apple scab pathogen Venturia inaequalis and then remain in an incubation cabin at approx. 20° C. and 100% relative air humidity for 1 day. The plants are then placed in the greenhouse at about 21° C. and a relative atmospheric humidity of about 90%. Evaluation follows 10 days after the inoculation. 0% means an efficacy which corresponds to that of the control, whereas an efficacy of 100% means that no infection is observed.
as §8

Row | SMILES | chromatographic logP [1] | pest or weed control at 500 ppm (Sphaerotheca fuliginea) [%] | pest or weed control at 500 ppm (Alternaria solani) [%] | pest or weed control at 500 ppm (Septoria tritici) [%] | pest or weed control at 500 ppm (Leptosphaeria nodorum) [%] | pest or weed control at 500 ppm [2] [%] | pest or weed control at 100 ppm (Uromyces appendiculatus) [%] | pest or weed control at 500 ppm (Puccinia triticina) [%] | pest or weed control at 100 ppm (Venturia inaequalis) [%]
1 | CC(C)C(O)(CSc1ccc(SC(F)(F)F)cc1)c1cncnc1 (centres unmarked) [Compound 3] | 3.28 | 94 | 95 | 75 | 90 | 100 | – | – | –
2 | CC(C)(C)C(O)(CSc1ccc(SC(F)(F)F)cc1)c1cncnc1 (centres unmarked) [Compound 4] | – | 91 | 95 | 100 | 70 | 89 | – | – | –
3 | CC(C)(C)C(O)(CCc1ccc(SC(F)(F)F)cc1)c1cncnc1 (centres unmarked) [Compound 7] | – | 95 | 94 | – | 95 | – | – | – | –
4 | OC(c1cncnc1)(c1ccc(F)cc1F)C1(Oc2ccc(SC(F)(F)F)cc2)CC1 (centres unmarked) [Compound 8] | – | 100 | 80 | – | – | – | – | – | –
5 | CC(C)(Oc1ccc(OC(F)(F)F)cc1)C(C)(O)c1cncnc1 (centres unmarked) [Compound 9] | – | 95 | 100 | 90 | 100 | 100 | 100 | 100 | 94
6 | CC(C)(Sc1ccc(OC(F)(F)F)cc1)C(C)(O)c1cncnc1 (centres unmarked) [Compound 10] | – | – | 100 | – | 100 | – | – | – | –
7 | CC(C)(Sc1ccc(SC(F)(F)F)cc1)C(C)(O)c1cncnc1 (centres unmarked) [Compound 11] | – | – | 100 | – | 95 | – | – | – | –
8 | CC#CC(O)(c1cncnc1)C(C)(C)Sc1ccc(OC(F)(F)F)cc1 (centres unmarked) [Compound 13] | – | 76 | 100 | – | 95 | – | – | – | –
9 | CC#CC(O)(c1cncnc1)C(C)(C)Oc1ccc(OC(F)(F)F)cc1 (centres unmarked) [Compound 14] | – | 95 | 94 | 90 | 100 | 100 | – | 89 | –
10 | CC#CC(O)(c1cncnc1)C(C)(C)Sc1ccc(SC(F)(F)F)cc1 (centres unmarked) [Compound 15] | – | 88 | 94 | – | 95 | – | – | – | –
11 | C=CCC(O)(c1cncnc1)C(C)(C)Sc1ccc(SC(F)(F)F)cc1 (centres unmarked) [Compound 16] | – | – | 100 | – | 70 | – | – | – | –
12 | OC(COc1ccc(OC(F)(F)F)cc1)(c1cncnc1)C1(Cl)CC1 (centres unmarked) [Compound 20] | – | 75 | 100 | – | 95 | – | 98 | – | 100
13 | OC(COc1ccc(SC(F)(F)F)cc1)(c1cncnc1)C1(Cl)CC1 (centres unmarked) [Compound 21] | – | 100 | 95 | – | – | – | – | – | –
14 | CC(C)(Oc1cccc(OC(F)(F)F)c1)C(C)(O)c1cncnc1 (centres unmarked) [Compound 22] | – | 95 | 100 | – | 100 | – | – | – | 94
15 | CC#CC(O)(c1cncnc1)C(C)(C)Oc1cccc(OC(F)(F)F)c1 (centres unmarked) [Compound 23] | – | 88 | 75 | – | 70 | – | – | – | –
16 | CC(C)C(O)(c1cncnc1)C(C)(C)Oc1cccc(OC(F)(F)F)c1 (centres unmarked) [Compound 24] | – | 83 | 95 | – | 80 | – | – | – | –
17 | CC(C)(Oc1ccccc1OC(F)(F)F)C(C)(O)c1cncnc1 (centres unmarked) [Compound 25] | – | – | 90 | – | – | – | – | – | –
18 | CC(C)C(O)(c1cncnc1)C(C)(C)Oc1ccccc1OC(F)(F)F (centres unmarked) [Compound 27] | – | 88 | – | – | – | – | – | – | –
19 | CC(C)(C)C(O)(COc1ccc(OC(F)(F)F)cc1Cl)c1cncnc1 (centres unmarked) [Compound 29] | 3.47 | 100 | 78 | – | 75 | – | – | – | –
20 | Cc1cc(OCC(O)(c2cncnc2)C(C)(C)C)ccc1SC(F)(F)F (centres unmarked) [Compound 32] | 3.04 | 95 | – | – | – | – | – | – | –
21 | CC(C)(C)C(O)(COc1ccc(OC(F)F)cc1)c1cncnc1 (centres unmarked) [Compound 34] | 2.63 | 95 | 95 | – | 100 | – | – | – | –
